Results published in patent US10124033B2, “Peptides and methods of use” (BAXALTA INCORPORATED, priority 2014, dated 2018).
pEC50, pKd: −log10 of the molar value. Like-named read-outs stand apart in the source and are kept apart here. Residues, ends and D or L forms follow the SMILES beside them.

Columns and labels:
[1] = plasma stability in mouse plasma; assay type: in vitro ADME; details: 37° C.
Experimental: (§1) Affinity and activity of all 18 peptides was improved compared to parent JBS2572. […] Activity and stability were improved up to 1.5-fold. Plasma stability was determined in pooled normal human plasma and mouse plasma at 37° C.; exemplary results also are provided in Table 3.

[2] = target: T1, human full-length Protein S (Homo sapiens, UniProt P07225); experiment: Biacore (surface plasmon resonance) on immobilized Protein S; assay type: binding; details: Biacore; for koff / kon: Table 3; for pKd: affinity-matured and modified peptides, read-out: KD
T1 construct: using human full-length Protein S and human GAS6
T1 sequence (P07225 41-676 limits assumed): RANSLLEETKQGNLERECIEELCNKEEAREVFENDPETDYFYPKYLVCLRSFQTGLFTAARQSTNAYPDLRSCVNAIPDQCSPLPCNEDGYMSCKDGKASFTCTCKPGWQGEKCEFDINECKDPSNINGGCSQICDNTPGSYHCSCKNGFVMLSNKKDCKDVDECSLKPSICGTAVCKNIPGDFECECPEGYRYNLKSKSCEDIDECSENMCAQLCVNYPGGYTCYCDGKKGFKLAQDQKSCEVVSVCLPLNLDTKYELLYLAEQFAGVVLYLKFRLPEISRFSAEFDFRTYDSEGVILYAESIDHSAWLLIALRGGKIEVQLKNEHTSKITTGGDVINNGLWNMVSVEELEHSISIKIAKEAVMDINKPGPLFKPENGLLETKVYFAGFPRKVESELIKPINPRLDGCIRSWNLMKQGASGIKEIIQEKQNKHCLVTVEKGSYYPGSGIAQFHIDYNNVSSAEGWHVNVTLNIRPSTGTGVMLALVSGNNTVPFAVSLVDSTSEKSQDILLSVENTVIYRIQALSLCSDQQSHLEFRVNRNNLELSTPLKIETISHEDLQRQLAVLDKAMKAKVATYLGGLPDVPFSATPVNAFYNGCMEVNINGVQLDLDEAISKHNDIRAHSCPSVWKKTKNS
Experimental: (§2) Protein S affinity also was determined via Biacore (Biacore 3000 or Biacore T200) using human full-length Protein S and human GAS6. Briefly, 1000 RU of Protein S or GAS6 were immobilized on a CMS chip. In order to probe the kinetics of Protein S binding peptides to Protein S, the peptides were injected at various concentrations in a HBS-buffer containing 3 mM CaCl2 and 1% DMSO to the flow cell and allowed to interact with the immobilized proteins on the sensor chip. The chip could be regenerated with 4 M MgCl2 in HBS-buffer. Sensorgrams were fitted to a Langmuir binding model for the determination of kon and koff and the calculation of KD. Peptides were tested on their specificity to Protein S with peptide binding studies on the anti-target GAS6.

[3] = plasma stability in pooled normal human plasma; assay type: in vitro ADME; details: pooled normal human plasma, 37° C., 6 hours
Experimental: as §1

[4] = target: T2, Protein S/APC cofactor activity (Homo sapiens, UniProt P07225); experiment: CAT assay in pooled normal plasma supplemented with 3 nM APC; assay type: biochemical; details: 6 pM TF, 15 μM phospholipids
T2 construct: host or cells: plasma
T2 sequence (P07225 41-676 limits assumed): T1 sequence (P07225 41-676 limits assumed)
Experimental: Peptides also were tested for improvement of Protein S/APC-dependent thrombin generation in hemophilic plasma using a CAT assay. Protein S enhances the anticoagulation of APC in plasma. The CAT assay quantifies the effect of Protein S on APC-mediated thrombin generation initiated via the extrinsic coagulation pathway (Nicolaes, Blood Coagul. Fibrinolysis, 8:28 (1997)). APC (35 nM) and Protein S (25 nM) was added to Protein 5-depleted plasma, and plasma samples were incubated with high titer heat inactivated anti-human FVIII plasma raised in goat (4490 BU/ml; Baxter BioScience, Vienna, Austria; 50 BU/ml final plasma concentration). Thrombin formation in plasma was followed by calibrated automated thrombography (CAT) in a Fluoroskan Ascent® reader (Thermo Labsystems, Helsinki, Finland) and quantified via the thrombin peak-height. Thrombin generation was determined at high tissue factor (TF) concentration in the absence and in the presence of APC at a concentration that reduces the peak height to 20%. The inhibitory effect of peptides described herein on the APC cofactor activity of Protein S (PS) in plasma was measured in FVIII-inhibited pooled normal plasma supplemented with APC. Complete (100%) Protein S/APC inhibition is the height of the thrombin peak without addition of APC. Lack of (0%) PS/APC inhibition correlates to the thrombin peak-height value with a certain amount of APC. Peptides were ranked by their normalized values in comparison to the mean of wild-type controls including SD at two defined peptide concentrations (EC50 and EC90). […] For the assays, pooled normal plasma was supplemented with 3 nM APC and triggered with 6 pM TF, and 15 μM phospholipids (DOPC/POPS 80/20). Stock APC was diluted with TF-PL-MIX to 24 nM (plasma concentration: 3 nM).

human GAS6 = target: T3, human GAS6 (Homo sapiens, UniProt Q14393); experiment: Biacore binding to anti-target GAS6; details: 1 μM peptide; sensorgrams reviewed visually
T3 sequence (Q14393 31-678): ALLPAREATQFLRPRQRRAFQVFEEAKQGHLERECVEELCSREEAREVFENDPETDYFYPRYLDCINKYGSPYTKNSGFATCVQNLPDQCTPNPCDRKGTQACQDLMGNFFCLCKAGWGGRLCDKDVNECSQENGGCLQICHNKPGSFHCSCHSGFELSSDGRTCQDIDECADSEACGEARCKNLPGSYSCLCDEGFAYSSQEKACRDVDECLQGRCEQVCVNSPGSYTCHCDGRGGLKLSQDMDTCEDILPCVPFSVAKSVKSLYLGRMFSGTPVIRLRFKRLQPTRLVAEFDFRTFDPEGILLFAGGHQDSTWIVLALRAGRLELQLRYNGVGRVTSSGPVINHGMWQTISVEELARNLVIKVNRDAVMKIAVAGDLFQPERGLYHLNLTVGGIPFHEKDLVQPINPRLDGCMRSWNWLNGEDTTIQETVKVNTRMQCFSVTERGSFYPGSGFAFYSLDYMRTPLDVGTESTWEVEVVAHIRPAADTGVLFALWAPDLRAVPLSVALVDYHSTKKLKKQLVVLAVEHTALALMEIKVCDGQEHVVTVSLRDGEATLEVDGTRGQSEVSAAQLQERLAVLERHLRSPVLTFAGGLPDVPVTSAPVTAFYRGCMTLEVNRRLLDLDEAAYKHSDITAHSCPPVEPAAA
Experimental: as §2
Interactions with the anti-target GAS6 were measured via Biacore (surface plasmon resonance) (see Example 2). The maximum signal from the interaction of the peptides with human GAS6 was much lower than the signals obtained with Protein S as interaction partner. Kinetic analysis of the low GAS6 binding signals was error prone, and sensorgrams were reviewed visually to estimate anti-target binding. […] The affinity of JBS2572 for the anti-target was at least 10 times less (indeed, at least 150 times less) than the affinity of the peptides for human Protein S. The data provided by this example confirm that peptides described herein specifically bind Protein S.

Compound | koff ([2]; read-out: koff) [s⁻¹] | kon ([2]; read-out: kon) [M⁻¹ s⁻¹] | pKd [2] | pEC50 [4] | koff [2] [s⁻¹] | kon [2] [M⁻¹ s⁻¹] | binding to GAS6 (human GAS6) | Stability in mouse plasma; 4 hours [%] [1] [%] | Stability in human plasma; 6 hours [%] [3] [%]
JBS3321: tetramer of JBS3319 monomers together with a four arm 10 kD PEG moiety (Ac-EYYVSAGWYDYNTDTYYEFEC-NH2; not fully specified (residue 21); also: tetramer: four chains joined through C-terminal Cys maleimide to a four-arm 10 kD PEG core) |  |  |  |  | 3.88e-05 | 1.58e+06 |  | 94 ± 12 | 99 ± 6
JBS3322: JBS3206 monomer comprising a 40 kD PEG moiety (Ac-EYIVTAGWYDYNKDIYYEFKC-NH2; not fully specified (residue 21)) |  |  |  |  | 0.000278 | 78000 | not to interact | 91 ± 26 | 131 ± 14
JBS3318: JBS3319 conjugated to 40 kD PEG moiety (Ac-EYYVSAGWYDYNTDTYYEFEC-NH2; not fully specified (residue 21)) |  |  |  |  | 0.000213 | 152000 | not to interact | 102 ± 20 | 114 ± 8

Continued, in another order:

koff ([2]; read-out: koff) [s⁻¹] | kon ([2]; read-out: kon) [M⁻¹ s⁻¹] | pKd [2] | pEC50 [4] | koff [2] [s⁻¹] | kon [2] [M⁻¹ s⁻¹] | binding to GAS6 (human GAS6) | Compound | Stability in mouse plasma; 4 hours [%] [1] [%] | Stability in human plasma; 6 hours [%] [3] [%]
0.000322 | 735000 | 9.40 |  |  |  |  | CC[C@H](C)[C@H](NC(=O)[C@H](C)NC(C)=O)C(=O)N[C@@H](Cc1ccc(O)cc1)C(=O)N[C@H](C(=O)N[C@H](C(=O)N[C@@H](C)C(=O)NCC(=O)N[C@@H](Cc1c[nH]c2ccccc12)C(=O)N[C@@H](Cc1ccc(O)cc1)C(=O)N[C@@H](CC(=O)O)C(=O)N[C@@H](Cc1ccc(O)cc1)C(=O)N[C@@H](CC(N)=O)C(=O)N[C@@H](CC(N)=O)C(=O)N[C@@H](CC(=O)O)C(=O)N[C@H](C(=O)N[C@@H](Cc1ccc(O)cc1)C(=O)N[C@@H](Cc1ccc(O)cc1)C(=O)N[C@@H](CCC(=O)O)C(=O)N[C@@H](Cc1ccccc1)C(=O)N[C@H](C(N)=O)[C@@H](C)O)[C@@H](C)O)[C@@H](C)O)C(C)C [JBS3283] (Ac-AIYVTAGWYDYNNDTYYEFT-NH2) | 94 ± 6 | 90 ± 9
 |  |  | 6.81 |  |  |  | CC(=O)N[C@H](C(=O)NCC(=O)N[C@@H](CC(C)C)C(=O)N[C@H](C(=O)N[C@@H](CO)C(=O)N[C@@H](C)C(=O)NCC(=O)N[C@@H](Cc1c[nH]c2ccccc12)C(=O)N[C@@H](Cc1ccc(O)cc1)C(=O)N[C@@H](CC(=O)O)C(=O)N[C@@H](Cc1ccc(O)cc1)C(=O)N[C@@H](CC(N)=O)C(=O)N[C@@H](Cc1ccccc1)C(=O)N[C@@H](CC(=O)O)C(=O)N[C@H](C(=O)N[C@@H](Cc1ccc(O)cc1)C(=O)N[C@H](C(=O)N[C@@H](CCC(=O)O)C(=O)N[C@@H](Cc1ccccc1)C(=O)N[C@H](C(N)=O)[C@@H](C)O)[C@@H](C)O)[C@@H](C)O)C(C)C)[C@@H](C)O [JBS3188] (Ac-TGLVSAGWYDYNFDTYTEFT-NH2) |  | 
0.000402 | 1e+06 | 9.40 |  |  |  |  | CC(=O)N[C@@H](Cc1c[nH]cn1)C(=O)N[C@@H](Cc1c[nH]c2ccccc12)C(=O)N[C@@H](Cc1ccc(O)cc1)C(=O)N[C@H](C(=O)N[C@@H](CO)C(=O)N[C@@H](C)C(=O)NCC(=O)N[C@@H](Cc1c[nH]c2ccccc12)C(=O)N[C@@H](Cc1ccc(O)cc1)C(=O)N[C@@H](CC(=O)O)C(=O)N[C@@H](Cc1ccc(O)cc1)C(=O)N[C@@H](CC(N)=O)C(=O)N[C@@H](CCC(=O)O)C(=O)N[C@@H](CC(=O)O)C(=O)N[C@@H](CCCCN)C(=O)N[C@@H](Cc1ccc(O)cc1)C(=O)N[C@@H](Cc1ccc(O)cc1)C(=O)N[C@@H](CCC(=O)O)C(=O)N[C@@H](Cc1ccccc1)C(=O)N[C@@H](CCC(=O)O)C(N)=O)C(C)C [JBS3306] (Ac-HWYVSAGWYDYNEDKYYEFE-NH2) | 80 ± 14 | 84 ± 12
0.000264 | 629000 | 9.40 |  |  |  |  | CC[C@H](C)[C@H](NC(=O)[C@H](CC(=O)O)NC(=O)[C@H](CCCCN)NC(=O)[C@H](CC(N)=O)NC(=O)[C@H](Cc1ccc(O)cc1)NC(=O)[C@H](CC(=O)O)NC(=O)[C@H](Cc1ccc(O)cc1)NC(=O)[C@H](Cc1c[nH]c2ccccc12)NC(=O)CNC(=O)[C@H](C)NC(=O)[C@@H](NC(=O)[C@@H](NC(=O)[C@@H](NC(=O)[C@H](Cc1ccc(O)cc1)NC(=O)[C@H](CCC(=O)O)NC(C)=O)[C@@H](C)CC)C(C)C)[C@@H](C)O)C(=O)N[C@@H](Cc1ccc(O)cc1)C(=O)N[C@@H](Cc1ccc(O)cc1)C(=O)N[C@@H](CCC(=O)O)C(=O)N[C@@H](Cc1ccccc1)C(=O)N[C@@H](CCCCN)C(N)=O [JBS3263] (Ac-EYIVTAGWYDYNKDIYYEFK-NH2) | 56 ± 6 | 74 ± 12
